PubChem BioAssay AID248 (DTP/NCI, 2004)
Values joined by “and” are separate entries in the source; they are usually repeats but may differ in a detail not shown here. Identical values can stand only once. Inconclusive results and toxic doses are left out. Cut-off read from the data, not from the text of the source: active = T/C of 150% or more; inactive = T/C below 125%.

System: L1210 leukemia ip in BDF1 mice, survival T/C
Assay: NCI In Vivo Anticancer Drug Screen. Data for tumor model L1210 Leukemia (intraperitoneal) in B6D2F1 (BDF1) mice
Conditions: endpoint: mean survival time, higher = longer survival
Summary of the method: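 Read-out is survival time, reported as the treated-group measurement over the vehicle-control measurement.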

[1] = dose: 100.0 mg/kg/injection, schedule: Q01DX009 (ip), vehicle: saline
[2] = dose: 400.0 mg/kg/injection, schedule: Q01DX009 (ip), vehicle: saline
[3] = dose: 100.0 mg/kg/injection, schedule: Q01DX001 (ip), vehicle: saline
[4] = dose: 200.0 mg/kg/injection, schedule: Q01DX001 (ip), vehicle: saline
[5] = dose: 400.0 mg/kg/injection, schedule: Q01DX001 (ip), vehicle: saline
[6] = dose: 100.0 mg/kg/injection, schedule: Q01DX009 (ip), vehicle: Klucel (hydroxypropylcellulose) (HPC)
[7] = dose: 100.0 mg/kg/injection, schedule: Q04DX003 (ip), vehicle: Klucel (hydroxypropylcellulose) (HPC)
[8] = dose: 200.0 mg/kg/injection, schedule: Q01DX009 (ip), vehicle: Klucel (hydroxypropylcellulose) (HPC)
[9] = dose: 200.0 mg/kg/injection, schedule: Q04DX003 (ip), vehicle: Klucel (hydroxypropylcellulose) (HPC)
[10] = dose: 400.0 mg/kg/injection, schedule: Q01DX009 (ip), vehicle: Klucel (hydroxypropylcellulose) (HPC)
[11] = dose: 400.0 mg/kg/injection, schedule: Q04DX003 (ip), vehicle: Klucel (hydroxypropylcellulose) (HPC)
[12] = dose: 50.0 mg/kg/injection, schedule: Q01DX001 (ip), vehicle: carboxymethylcellulose (CMC)
[13] = dose: 400.0 mg/kg/injection, schedule: Q01DX001 (ip), vehicle: carboxymethylcellulose (CMC)
[14] = dose: 100.0 mg/kg/injection, schedule: Q04DX002 (ip), vehicle: Klucel (hydroxypropylcellulose) (HPC)

Measured: T/C

CCC[CH2][Sn]([CH2]CCC)([CH2]CCC)[O]C(=O)CC[S][Sn]([CH2]CCC)([CH2]CCC)[CH2]CCC
inactive: dose: 0.5 mg/kg/injection, schedule: Q01DX015 (ip), vehicle: saline 97 % of control | dose: 1.0 mg/kg/injection, schedule: Q01DX015 (ip), vehicle: saline 100 % of control | dose: 2.0 mg/kg/injection, schedule: Q01DX015 (ip), vehicle: saline 95 % of control | dose: 2.5 mg/kg/injection, schedule: Q01DX001 (ip), vehicle: saline 103 % of control | dose: 4.0 mg/kg/injection, schedule: Q01DX015 (ip), vehicle: saline 87 % of control | dose: 5.0 mg/kg/injection, schedule: Q01DX001 (ip), vehicle: saline 100 % of control | dose: 10.0 mg/kg/injection, schedule: Q01DX001 (ip), vehicle: saline 105 % of control | dose: 20.0 mg/kg/injection, schedule: Q01DX001 (ip), vehicle: saline 97 % of control

O=C(O)C1OC1c1ccccc1 (stereo not drawn)
inactive: [1] 107 % of control | dose: 100.0 mg/kg/injection, schedule: Q04DX003 (ip), vehicle: saline with Tween-80 98 % of control | dose: 200.0 mg/kg/injection, schedule: Q01DX009 (ip), vehicle: saline 109 % of control | dose: 200.0 mg/kg/injection, schedule: Q04DX003 (ip), vehicle: saline with Tween-80 98 % of control | [2] 104 % of control | dose: 400.0 mg/kg/injection, schedule: Q04DX003 (ip), vehicle: saline with Tween-80 100 % of control

CC(C)(C)NC(=O)Nc1ccc(Cl)c(Cl)c1
inactive: [3] 97 % of control | [4] 100 % of control | [5] 95 % of control

CC(=O)CC(=O)Nc1cc(C)c(NC(=O)CC(C)=O)cc1C
inactive: [6] 95 % of control | [7] 98 % of control | [8] 93 % of control | [9] 96 % of control | [10] 103 % of control | [11] 98 % of control

Cc1ccc(NS(=O)(=O)c2ccc(F)cc2)c(C)c1
inactive: [6] 94 % of control | [7] 100 % of control | [8] 94 % of control | [9] 97 % of control | [10] 101 % of control | [11] 101 % of control

O=C1C(=O)c2ccccc2C(O)=C1c1ccccc1
inactive: [12] 114 % of control

N#C/C(=C\c1cccc([N+](=O)[O-])c1)c1ccccc1
inactive: dose: 100.0 mg/kg/injection, schedule: Q01DX001 (ip), vehicle: Klucel (hydroxypropylcellulose) (HPC) 97 % of control | dose: 200.0 mg/kg/injection, schedule: Q01DX001 (ip), vehicle: Klucel (hydroxypropylcellulose) (HPC) 101 % of control | dose: 400.0 mg/kg/injection, schedule: Q01DX001 (ip), vehicle: Klucel (hydroxypropylcellulose) (HPC) 94 % of control

O=NN(CCO)C(=O)Nc1c[nH]c(=O)[nH]c1=O
active: [13] 190 % of control
inactive: dose: 12.5 mg/kg/injection, schedule: Q01DX001 (ip), vehicle: carboxymethylcellulose (CMC) 118 % of control | dose: 25.0 mg/kg/injection, schedule: Q01DX001 (ip), vehicle: carboxymethylcellulose (CMC) 118 % of control | [12] 122 % of control

CC(=O)OCC(=O)[C@@]1(O)CC[C@H]2[C@@H]3CCC4=CC(=O)C=C[C@]4(C)[C@@]3(F)[C@@H](O)C[C@@]21C
inactive: dose: 12.5 mg/kg/injection, schedule: Q01DX009 (ip), vehicle: saline with Tween-80 117 % of control | dose: 25.0 mg/kg/injection, schedule: Q01DX009 (ip), vehicle: saline with Tween-80 101 % of control | dose: 50.0 mg/kg/injection, schedule: Q01DX009 (ip), vehicle: saline with Tween-80 96 % of control

N#Cc1cc[n+](Cc2ccc([N+](=O)[O-])cc2)cc1
inactive: [3] 104 % of control | [4] 98 % of control

CC1=C(c2ccccc2)C(c2ccccc2)=CC1=O
inactive: [12] 95 % of control | dose: 100.0 mg/kg/injection, schedule: Q01DX001 (ip), vehicle: carboxymethylcellulose (CMC) 92 % of control | dose: 200.0 mg/kg/injection, schedule: Q01DX001 (ip), vehicle: carboxymethylcellulose (CMC) 92 % of control | [13] 95 % of control

Cc1cc(C(C)(C)C)cc(O)c1O
inactive: dose: 100.0 mg/kg/injection, schedule: Q01DX001 (ip), vehicle: other 113 % of control | dose: 200.0 mg/kg/injection, schedule: Q01DX001 (ip), vehicle: other 93 % of control | dose: 400.0 mg/kg/injection, schedule: Q01DX001 (ip), vehicle: other 93 % of control

O=C(Nc1ccccc1)Nc1cc(Cl)ccc1Cl
inactive: dose: 25.0 mg/kg/injection, schedule: Q04DX002 (ip), vehicle: Klucel (hydroxypropylcellulose) (HPC) 107 % of control | dose: 50.0 mg/kg/injection, schedule: Q04DX002 (ip), vehicle: Klucel (hydroxypropylcellulose) (HPC) 90 % of control | [14] 90 % of control

Ic1ccccc1CNCCc1ccccc1
inactive: dose: 75.0 mg/kg/injection, schedule: Q01DX001 (ip), vehicle: other 93 % of control | dose: 150.0 mg/kg/injection, schedule: Q01DX001 (ip), vehicle: other 96 % of control | dose: 300.0 mg/kg/injection, schedule: Q01DX001 (ip), vehicle: other 96 % of control

Cc1cccc(NC(=O)NC2CCCCC2)c1C
inactive: [14] 111 % of control | dose: 200.0 mg/kg/injection, schedule: Q04DX002 (ip), vehicle: Klucel (hydroxypropylcellulose) (HPC) 99 % of control | dose: 400.0 mg/kg/injection, schedule: Q04DX002 (ip), vehicle: Klucel (hydroxypropylcellulose) (HPC) 86 % of control

CCCNC1=C(N2CC2)C(=O)C(NCCC)=C(N2CC2)C1=O
inactive: dose: 0.09 mg/kg/injection, schedule: Q04DX003 (ip), vehicle: saline 96 % of control and 109 % of control | dose: 0.18 mg/kg/injection, schedule: Q04DX003 (ip), vehicle: saline 97 % of control and 106 % of control | dose: 0.37 mg/kg/injection, schedule: Q01DX001 (ip), vehicle: saline 108 % of control | dose: 0.37 mg/kg/injection, schedule: Q04DX003 (ip), vehicle: saline 100 % of control and 103 % of control | dose: 0.39 mg/kg/injection, schedule: Q01DX009 (ip), vehicle: saline 95 % of control and 102 % of control | dose: 0.75 mg/kg/injection, schedule: Q01DX001 (ip), vehicle: saline 108 % of control | dose: 0.75 mg/kg/injection, schedule: Q04DX003 (ip), vehicle: saline 105 % of control and 108 % of control | dose: 0.78 mg/kg/injection, schedule: Q01DX009 (ip), vehicle: saline 107 % of control and 118 % of control | dose: 1.5 mg/kg/injection, schedule: Q01DX001 (ip), vehicle: saline 117 % of control | dose: 1.5 mg/kg/injection, schedule: Q04DX003 (ip), vehicle: saline 100 % of control | dose: 1.56 mg/kg/injection, schedule: Q01DX009 (ip), vehicle: saline 107 % of control and 116 % of control | dose: 1.56 mg/kg/injection, schedule: Q04DX003 (ip), vehicle: saline 103 % of control | dose: 3.0 mg/kg/injection, schedule: Q01DX001 (ip), vehicle: saline 118 % of control | dose: 3.0 mg/kg/injection, schedule: Q04DX003 (ip), vehicle: saline 118 % of control and 120 % of control | dose: 3.12 mg/kg/injection, schedule: Q04DX003 (ip), vehicle: saline 93 % of control | dose: 6.0 mg/kg/injection, schedule: Q01DX001 (ip), vehicle: saline 90 % of control | dose: 6.25 mg/kg/injection, schedule: Q04DX003 (ip), vehicle: saline 98 % of control | dose: 12.0 mg/kg/injection, schedule: Q01DX001 (ip), vehicle: saline 110 % of control | dose: 12.5 mg/kg/injection, schedule: Q04DX003 (ip), vehicle: saline 115 % of control | dose: 25.0 mg/kg/injection, schedule: Q04DX003 (ip), vehicle: saline 113 % of control

COC(OC)c1[nH]c(=S)[nH]c(=O)c1Cc1cccc(Cl)c1
inactive: [1] 100 % of control | [2] 113 % of control

Cn1c(=O)cc(CC(=O)C(=O)O)c2ccccc21
inactive: [3] 88 % of control | [4] 93 % of control | [5] 93 % of control
